Experimental data: ChEMBL document CHEMBL4229538, “Design, synthesis and structure-activity relationship of diaryl-ureas with novel isoxazol[3,4-b]pyridine-3-amino-structure as multi-target inhibitors against receptor tyrosine kinase” (Bioorg Med Chem, 2018); call rule not given here
Each block holds one compound with its values, some of them ahead of it.

What was measured:
HUVEC = experiment: Antiproliferative activity against HUVEC after 72 hrs by cell titer glo-based fluorescence assay; conditions: Homo sapiens
[1] = target: Platelet-derived growth factor receptor beta (Homo sapiens, UniProt P09619); experiment: Inhibition of human PDGFRbeta using biotin labeled substrate after 1 hr by HTFR assay
MCF7 = experiment: Antiproliferative activity against human MCF7 cells after 72 hrs by cell titer glo-based fluorescence assay; conditions: MCF7, 72 h
MV4-11 = experiment: Antiproliferative activity against human MV4-11 cells after 72 hrs by cell titer glo-based fluorescence assay; conditions: MV4-11, 72 h
[2] = target: Vascular endothelial growth factor receptor 2 (Homo sapiens, UniProt P35968)
Description: Inhibition of human KDR using biotin labeled substrate after 1 hr by HTFR assay

[3] = target: T1, Receptor-type tyrosine-protein kinase FLT3 (Homo sapiens, UniProt P36888)
T1 sequence (P36888 whole entry): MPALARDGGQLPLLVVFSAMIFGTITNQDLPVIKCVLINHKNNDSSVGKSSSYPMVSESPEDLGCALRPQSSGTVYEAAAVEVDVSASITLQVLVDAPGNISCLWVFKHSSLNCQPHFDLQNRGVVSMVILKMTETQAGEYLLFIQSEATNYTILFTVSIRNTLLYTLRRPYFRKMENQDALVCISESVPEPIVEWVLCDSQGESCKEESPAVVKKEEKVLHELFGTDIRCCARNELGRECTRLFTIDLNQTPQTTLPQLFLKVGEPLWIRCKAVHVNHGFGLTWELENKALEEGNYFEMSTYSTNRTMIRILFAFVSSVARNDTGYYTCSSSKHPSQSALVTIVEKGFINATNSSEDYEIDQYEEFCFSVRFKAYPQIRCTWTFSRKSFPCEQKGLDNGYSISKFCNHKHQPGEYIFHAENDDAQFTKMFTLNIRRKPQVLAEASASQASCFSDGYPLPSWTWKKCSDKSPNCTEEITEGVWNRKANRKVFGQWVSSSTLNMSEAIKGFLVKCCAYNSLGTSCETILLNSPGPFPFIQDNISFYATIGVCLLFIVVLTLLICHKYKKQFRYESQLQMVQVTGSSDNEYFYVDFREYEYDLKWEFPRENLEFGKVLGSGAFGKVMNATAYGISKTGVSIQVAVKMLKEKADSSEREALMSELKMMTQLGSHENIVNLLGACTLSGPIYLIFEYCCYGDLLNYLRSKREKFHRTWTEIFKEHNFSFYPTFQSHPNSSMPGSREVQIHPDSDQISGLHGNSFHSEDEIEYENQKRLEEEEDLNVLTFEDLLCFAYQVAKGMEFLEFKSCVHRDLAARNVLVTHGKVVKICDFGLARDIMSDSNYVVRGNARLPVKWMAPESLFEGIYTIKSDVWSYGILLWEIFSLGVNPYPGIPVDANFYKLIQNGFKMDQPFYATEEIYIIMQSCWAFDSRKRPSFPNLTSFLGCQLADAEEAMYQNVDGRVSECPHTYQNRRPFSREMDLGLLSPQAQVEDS
Description: Inhibition of human FLT3 using biotin labeled substrate after 1 hr by HTFR assay

Vascular endothelial growth factor receptor 2, sequence (P35968 whole entry): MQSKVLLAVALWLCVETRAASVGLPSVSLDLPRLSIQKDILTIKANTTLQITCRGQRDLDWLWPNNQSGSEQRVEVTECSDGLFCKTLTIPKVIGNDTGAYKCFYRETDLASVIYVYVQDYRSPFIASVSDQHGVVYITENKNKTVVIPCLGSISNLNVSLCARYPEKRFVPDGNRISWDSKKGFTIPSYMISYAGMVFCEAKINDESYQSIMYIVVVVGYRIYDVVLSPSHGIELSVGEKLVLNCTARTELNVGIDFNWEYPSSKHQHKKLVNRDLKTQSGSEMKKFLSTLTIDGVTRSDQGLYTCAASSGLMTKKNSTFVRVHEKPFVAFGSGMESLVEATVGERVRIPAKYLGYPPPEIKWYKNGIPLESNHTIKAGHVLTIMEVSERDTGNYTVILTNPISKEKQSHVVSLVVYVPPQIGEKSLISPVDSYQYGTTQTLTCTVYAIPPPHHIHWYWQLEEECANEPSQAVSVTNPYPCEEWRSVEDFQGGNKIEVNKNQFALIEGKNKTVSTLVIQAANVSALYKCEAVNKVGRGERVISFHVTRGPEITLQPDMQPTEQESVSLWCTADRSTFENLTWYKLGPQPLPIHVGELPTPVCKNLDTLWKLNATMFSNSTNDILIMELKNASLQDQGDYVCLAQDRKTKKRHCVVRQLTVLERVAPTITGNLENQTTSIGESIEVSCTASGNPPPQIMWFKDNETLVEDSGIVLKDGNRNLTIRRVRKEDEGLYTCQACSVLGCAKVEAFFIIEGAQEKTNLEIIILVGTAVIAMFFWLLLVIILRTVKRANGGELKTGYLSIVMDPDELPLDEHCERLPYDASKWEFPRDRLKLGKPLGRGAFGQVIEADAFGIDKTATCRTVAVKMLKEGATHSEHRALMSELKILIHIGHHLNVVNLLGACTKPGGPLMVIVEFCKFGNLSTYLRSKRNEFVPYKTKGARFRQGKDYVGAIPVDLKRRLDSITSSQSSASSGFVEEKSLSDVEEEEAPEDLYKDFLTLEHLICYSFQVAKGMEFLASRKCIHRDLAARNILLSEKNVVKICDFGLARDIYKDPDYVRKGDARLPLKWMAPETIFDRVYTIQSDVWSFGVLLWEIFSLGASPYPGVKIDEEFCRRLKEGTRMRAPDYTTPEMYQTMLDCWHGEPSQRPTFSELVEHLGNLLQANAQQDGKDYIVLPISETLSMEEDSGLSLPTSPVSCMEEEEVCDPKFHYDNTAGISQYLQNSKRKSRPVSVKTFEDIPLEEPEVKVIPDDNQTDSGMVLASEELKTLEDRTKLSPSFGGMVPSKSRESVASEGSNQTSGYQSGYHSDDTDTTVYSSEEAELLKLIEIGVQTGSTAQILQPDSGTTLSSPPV
Platelet-derived growth factor receptor beta, sequence (P09619 whole entry): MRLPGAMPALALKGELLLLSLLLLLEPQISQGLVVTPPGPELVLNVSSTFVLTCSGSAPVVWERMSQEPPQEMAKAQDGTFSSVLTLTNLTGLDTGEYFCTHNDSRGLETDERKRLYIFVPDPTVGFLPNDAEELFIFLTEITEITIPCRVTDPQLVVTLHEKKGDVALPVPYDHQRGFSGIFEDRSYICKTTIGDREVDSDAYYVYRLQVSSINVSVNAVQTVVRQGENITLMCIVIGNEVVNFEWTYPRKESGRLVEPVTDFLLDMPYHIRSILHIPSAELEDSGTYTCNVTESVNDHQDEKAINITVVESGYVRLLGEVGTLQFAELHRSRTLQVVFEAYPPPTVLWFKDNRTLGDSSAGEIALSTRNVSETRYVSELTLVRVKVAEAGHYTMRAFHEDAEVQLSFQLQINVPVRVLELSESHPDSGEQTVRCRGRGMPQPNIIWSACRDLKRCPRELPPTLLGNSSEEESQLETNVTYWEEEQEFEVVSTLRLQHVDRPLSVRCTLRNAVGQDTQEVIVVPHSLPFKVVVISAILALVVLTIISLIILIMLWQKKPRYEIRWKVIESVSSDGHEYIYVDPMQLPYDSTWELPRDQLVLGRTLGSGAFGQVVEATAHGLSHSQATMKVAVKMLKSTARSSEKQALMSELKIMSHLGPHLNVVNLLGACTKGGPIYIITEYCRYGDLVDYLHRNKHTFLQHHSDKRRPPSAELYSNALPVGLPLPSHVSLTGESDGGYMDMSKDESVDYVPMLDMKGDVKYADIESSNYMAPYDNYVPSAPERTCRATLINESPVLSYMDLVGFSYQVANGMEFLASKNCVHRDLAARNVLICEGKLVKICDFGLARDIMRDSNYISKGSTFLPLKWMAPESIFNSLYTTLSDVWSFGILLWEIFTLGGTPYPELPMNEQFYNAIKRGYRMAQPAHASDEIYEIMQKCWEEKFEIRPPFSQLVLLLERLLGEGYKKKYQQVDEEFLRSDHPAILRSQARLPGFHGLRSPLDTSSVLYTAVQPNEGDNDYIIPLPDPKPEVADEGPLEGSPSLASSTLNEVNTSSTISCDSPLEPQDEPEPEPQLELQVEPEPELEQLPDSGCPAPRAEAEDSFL

- IC50 ([1]; read-out: IC50): 40 nM
- IC50 (MCF7): 39500 nM
- IC50 (MV4-11): 540 nM
Structure (SMILES): Cc1cc(-c2ccc(NC(=O)Nc3cccc(Cl)c3)cc2)c2c(N)onc2n1
- IC50 (HUVEC): 15200 nM

- IC50 ([1]; read-out: IC50): 1230 nM
Structure (SMILES): Cc1cccc(NC(=O)Nc2ccc(-c3cc(-c4ccccc4)nc4noc(N)c34)cc2)c1

- IC50 ([1]; read-out: IC50): 510 nM
Structure (SMILES): C=C(CN1CCOCC1)C(=O)Nc1ccc(NC(=O)Nc2ccc(-c3cc(C)nc4noc(N)c34)cc2)cc1C

- IC50 [1]: Not Active
- IC50 [2]: Not Active
Structure (SMILES): COc1ccc(NC(=O)Nc2ccc(-c3cc(-c4ccccc4)nc4noc(N)c34)cc2)cc1

- IC50 [1]: Not Active
- IC50 [2]: Not Active
Structure (SMILES): C/C=C\C(=O)Nc1ccc(NC(=O)Nc2ccc(-c3cc(C)nc4noc(N)c34)cc2)cc1C

- IC50 ([1]; read-out: IC50): 20 nM
- IC50 (MCF7): 37400 nM
- IC50 (MV4-11): 610 nM
Structure (SMILES): Cc1cc(-c2ccc(NC(=O)Nc3cccc(C(F)(F)F)c3)cc2)c2c(N)onc2n1
- IC50 (HUVEC): 7950 nM

- IC50 ([1]; read-out: IC50): 2230 nM
Structure (SMILES): Nc1onc2nc(-c3ccccc3)cc(-c3ccc(NC(=O)Nc4cccc(Cl)c4)cc3)c12

- IC50 ([1]; read-out: IC50): 290 nM
Structure (SMILES): Nc1onc2nc(-c3ccccc3)cc(-c3ccc(NC(=O)Nc4ccc(Cl)c(C(F)(F)F)c4)cc3)c12

- IC50 ([1]; read-out: IC50): 8 nM
- IC50 (MCF7): 10500 nM
- IC50 (MV4-11): 120 nM
Structure (SMILES): Cc1cccc(NC(=O)Nc2ccc(-c3cc(C)nc4noc(N)c34)cc2)c1
- IC50 (HUVEC): 11700 nM

- IC50 ([1]; read-out: IC50): 3250 nM
Structure (SMILES): Nc1onc2nc(-c3ccccc3)cc(-c3ccc(NC(=O)Nc4cccc(F)c4)cc3)c12

- IC50 [1]: Not Active
- IC50 [2]: Not Active
Structure (SMILES): C/C=C\C(=O)Nc1ccc(NC(=O)Nc2ccc(-c3cc(C)nc4noc(N)c34)cc2)cc1

- IC50 ([1]; read-out: IC50): 3780 nM
Structure (SMILES): Nc1onc2nc(-c3ccccc3)cc(-c3ccc(NC(=O)Nc4ccc(F)cc4)cc3)c12

- IC50 ([1]; read-out: IC50): 1260 nM
- IC50 [2]: Not Active
Structure (SMILES): Cc1ccc(NC(=O)Nc2ccc(-c3cc(-c4ccccc4)nc4noc(N)c34)cc2)cc1

- IC50 [1]: Not Active
- IC50 [2]: Not Active
- IC50 [3]: Not Active
Structure (SMILES): Nc1onc2nc(-c3ccccc3)cc(-c3ccc(NC(=O)Nc4ccccc4F)cc3)c12

- IC50 ([1]; read-out: IC50): 20 nM
- IC50 (MCF7): 28800 nM
- IC50 (MV4-11): 340 nM
Structure (SMILES): Cc1cc(-c2ccc(NC(=O)Nc3ccc(Cl)c(C(F)(F)F)c3)cc2)c2c(N)onc2n1
- IC50 (HUVEC): 12600 nM

- IC50 [1]: Not Active
- IC50 [2]: Not Active
- IC50 [3]: Not Active
Structure (SMILES): C=CC(=O)Nc1ccc(NC(=O)Nc2ccc(-c3cc(-c4ccccc4)nc4noc(N)c34)cc2)cc1

- IC50 ([1]; read-out: IC50): 3520 nM
- IC50 [2]: Not Active
Structure (SMILES): Nc1onc2nc(-c3ccccc3)cc(-c3ccc(NC(=O)Nc4ccccc4)cc3)c12

- IC50 ([1]; read-out: IC50): 820 nM
Structure (SMILES): Cc1cc(-c2ccc(NC(=O)Nc3ccccc3Cl)cc2)c2c(N)onc2n1

- IC50 (MCF7): 17000 nM
- IC50 (MV4-11): 690 nM
Structure (SMILES): Cc1ccc(F)c(NC(=O)Nc2ccc(-c3cccc4[nH]nc(N)c34)cc2)c1 [LINIFANIB]
- IC50 (HUVEC): 40100 nM
